Tests used:
rat UT-A1 = target: T1, rat UT-A1 (Rattus norvegicus, UniProt Q62668); experiment: UT-A1 inhibition, fluorescence plate reader assay in MDCK cells expressing UT-A1, AQP1 and YFP-H148Q/V163S; assay type: cell-based
T1 construct: expressed in transfected cells; host or cells: MDCK cells stably co-expressing rat UT-A1, human AQP1 and YFP-H148Q/V163S
T1 sequence (Q62668 1-929): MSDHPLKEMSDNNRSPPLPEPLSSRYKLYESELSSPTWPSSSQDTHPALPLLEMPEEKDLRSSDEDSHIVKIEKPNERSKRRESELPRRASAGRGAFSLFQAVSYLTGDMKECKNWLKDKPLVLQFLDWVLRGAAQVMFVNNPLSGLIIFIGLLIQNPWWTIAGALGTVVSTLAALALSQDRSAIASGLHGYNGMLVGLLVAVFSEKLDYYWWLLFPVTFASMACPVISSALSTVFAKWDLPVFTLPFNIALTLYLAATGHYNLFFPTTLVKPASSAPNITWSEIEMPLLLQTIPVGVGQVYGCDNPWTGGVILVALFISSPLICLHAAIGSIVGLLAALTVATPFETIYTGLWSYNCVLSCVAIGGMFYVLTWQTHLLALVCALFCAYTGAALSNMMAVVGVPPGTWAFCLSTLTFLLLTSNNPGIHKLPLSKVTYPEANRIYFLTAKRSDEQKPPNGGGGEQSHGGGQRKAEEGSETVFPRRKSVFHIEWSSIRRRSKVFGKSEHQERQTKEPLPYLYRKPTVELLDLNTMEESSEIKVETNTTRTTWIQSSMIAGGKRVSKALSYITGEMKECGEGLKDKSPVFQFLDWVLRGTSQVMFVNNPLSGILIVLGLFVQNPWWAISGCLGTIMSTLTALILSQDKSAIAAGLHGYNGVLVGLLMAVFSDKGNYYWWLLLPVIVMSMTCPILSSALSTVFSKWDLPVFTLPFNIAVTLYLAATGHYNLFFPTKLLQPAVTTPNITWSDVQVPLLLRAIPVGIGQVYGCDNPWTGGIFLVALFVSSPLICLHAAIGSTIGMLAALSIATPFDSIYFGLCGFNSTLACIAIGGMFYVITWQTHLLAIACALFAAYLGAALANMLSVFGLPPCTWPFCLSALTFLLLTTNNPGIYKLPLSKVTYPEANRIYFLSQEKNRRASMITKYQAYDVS
Procedure: Primary screening was done using a collection of 50,000 chemically diverse, drug-like compounds from ChemDiv (San Diego, Calif.). For analysis of structure-activity relationships, >300 commercially available analogs (ChemDiv and Asinex, Winston-Salem, N.C.) were tested. Cells were plated on black 96-well Costar microplates with clear plastic bottoms (Corning, Corning, N.Y.) at 15,000 cells/well and cultured for 24 h at 37° C. before assay. Microplates containing cultured cells were washed twice with PBS and 150 μL of test compound (25 μM final) in PBS was added. Eighty wells contained test compounds, and the first and last columns of each plate contained negative (dimethyl sulfoxide, DMSO) and positive (0.35 mM phloretin) controls. The assays were done on a plate reader (Tecan Trading AG, Switzerland) equipped with a custom YFP filter set. Each assay consisted of a continuous 15-s read (5 Hz) in which 50 μL of 3.2 M urea in PBS was injected at 1 s (at 130 μL/s) to give a 800 mM final urea gradient.
MDCK cells stably expressing rat UT-A1 (see, e.g., Frohlich et al. (2006) Am J Physiol Cell Physiol. 291, C600-D606), YFP-H148Q/V163 S (see, e.g., Galietta, et al. (2001) FEBS Lett. 499, 220-224) and human AQP1, as described previously (see, e.g., Esteva-Font et al. (2013) Chem Biol. 20, 1235-1244), were grown in Dulbecco's modified Eagle medium (DMEM) containing 10% fetal bovine serum (FBS), penicillin G (100 U/mL), streptomycin (100 μg/mL), zeocin (500 μg/mL), geneticin (600 μg/mL) and Hygromycin (500 μg/mL) at 37° C., 5% CO2. A Cell Clone with bright YFP fluorescence and relatively low AQP1 expression was used for the screen to maximize dynamic range.
In order to identify UT-A inhibitors suitable for testing in rats, a collection of 50,000 synthetic small molecules was screened. As diagrammed in FIG. 1A (top), the fluorescence cell-based screen utilized MDCK cells stably rat expressing UT-A1, water channel AQP1 and the cytoplasmic chloride-sensing fluorescent protein YFP-H148Q/V163S. As described and validated previously (see, e.g., Esteva-Font et al. (2013) Chem Biol. 20, 1235-1244), extracellular addition of urea results in osmotic water efflux and cell shrinking, which increases intracellular chloride concentration and reduces YFP fluorescence. Urea entry results in increasing YFP fluorescence as cells re-swell. Inhibitors of UT-A1 urea transport produce a lesser reduction in fluorescence and slowed recovery.

rat UT-B = target: T2, rat UT-B (Rattus norvegicus, UniProt P97689); experiment: UT-B inhibition, erythrocyte lysis assay; assay type: cell-based; details: for IC50: rat erythrocytes
T2 construct: endogenous in cells; host or cells: rat erythrocytes (whole rat blood)
T2 sequence (P97689 1-384): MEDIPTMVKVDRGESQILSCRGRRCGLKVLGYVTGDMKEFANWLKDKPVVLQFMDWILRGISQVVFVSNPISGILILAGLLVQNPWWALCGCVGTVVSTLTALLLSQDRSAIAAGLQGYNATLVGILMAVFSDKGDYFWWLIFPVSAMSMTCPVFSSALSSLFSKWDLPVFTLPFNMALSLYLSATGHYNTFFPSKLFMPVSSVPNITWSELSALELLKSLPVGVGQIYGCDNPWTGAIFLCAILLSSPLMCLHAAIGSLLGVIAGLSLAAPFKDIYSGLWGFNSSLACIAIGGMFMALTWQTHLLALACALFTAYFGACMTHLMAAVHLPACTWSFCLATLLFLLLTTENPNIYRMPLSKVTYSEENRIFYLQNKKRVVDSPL
Procedure: As described (see, e.g., Levin et al. (2007) FASEB J. 21, 551-563), whole rat blood was diluted to a hematocrit of ˜1.5% in PBS containing 1.25 M acetamide and 5 mM glucose. Erythrocyte suspensions (100 μL) were added to 96-well round-bottom microplates and test compounds (1 μL) were added. After 15 min incubation, 20 μL of the erythrocyte suspension was added rapidly to each well containing 180 μL of PBS. Following vigorous mixing, erythrocyte lysis was quantified by absorbance at 710 nm. Non-lysed controls (isosmolar buffer) and lysed controls (0.7 mM phloretin) were added in each plate as negative and positive controls, respectively. Percentage erythrocyte lysis was computed as: % lysis=100% (Aneg−Atest)/(Aneg−Apos), where A is absorbance at 710 nm.
Inhibitor selectivity for rat UT-A1 versus UT-B was investigated using an erythrocyte lysis assay of rat UT-B urea transport, which involved measurement of hypotonic lysis (by near-infrared absorbance) of acetamide-loaded erythrocytes following rapid dilution into acetamide-free buffer.

UT = details: literature; cited from earlier work

SMILES	IC50 (rat UT-A1) [µM]	selectivity for UT-A1 versus UT-B (rat UT-B; rat UT-A1 versus rat UT-B)	IC50 (rat UT-B) [µM]	concentration exhibiting activity (UT) [mM]
CC(=O)Nc1ccc(-c2csc(-c3ccccc3)n2)cc1 [UTA1inh-E01]	3	high selectivity	–	–
CC(=O)Nc1ccc(-c2csc(C)n2)cc1 [UTA1inh-E03]	> 50	–	> 50	–
COc1ccc(C)cc1S(=O)(=O)Nc1cccc(N2CCCS2(=O)=O)c1 [UTA1inh-F01]	1	–	6	–
Cc1ccc(C)c(S(=O)(=O)Nc2cccc(N3CCCS3(=O)=O)c2)c1 [UTA1inh-F02]	15	–	> 75	–
Cc1cc(C)c(S(=O)(=O)Nc2cccc(N3CCCS3(=O)=O)c2)cc1C [UTA1inh-F03]	3	–	15	–
COc1ccc(F)cc1S(=O)(=O)Nc1cccc(N2CCCS2(=O)=O)c1 [UTA1inh-F04]	5	–	> 75	–
COc1cc(C)c(C)cc1S(=O)(=O)Nc1cccc(N2CCCS2(=O)=O)c1 [UTA1inh-F05]	3	–	20	–
Cc1ccc(C)c(S(=O)(=O)Nc2cc(N3CCCS3(=O)=O)ccc2C)c1 [UTA1inh-F06]	10	–	> 75	–
COc1ccc(F)cc1S(=O)(=O)Nc1cc(N2CCCS2(=O)=O)ccc1C [UTA1inh-F07]	15	–	> 75	–
COc1cc(C)c(C)cc1S(=O)(=O)Nc1cc(N2CCCS2(=O)=O)ccc1C [UTA1inh-F08]	30	–	20	–
COc1ccc(N2CCCS2(=O)=O)cc1NS(=O)(=O)c1cc(C)ccc1OC [UTA1inh-F09]	1	–	8	–
COc1ccc(N2CCCS2(=O)=O)cc1NS(=O)(=O)c1cc(C)ccc1C [UTA1inh-F10]	5	–	> 75	–
COc1ccc(OC)c(S(=O)(=O)Nc2ccc(Cl)c(N3CCCS3(=O)=O)c2)c1 [UTA1inh-F12]	5	–	–	–
COc1cc(C)c(C)cc1S(=O)(=O)Nc1ccc(Cl)c(N2CCCS2(=O)=O)c1 [UTA1inh-F13]	8	–	–	–
O=C(CCc1ccc(O)cc1)c1c(O)cc(O)cc1O [phloretin]	–	–	–	> 0.5
